In series [1] the test system is RPE1 (human immortalized retinal pigment epithelial cell line). In words: Antiproliferative/cytotoxicity MTT assay on normal cell line. It counts as cell-based. Conditions: RPE-1, 72 h incubation, tested at 100, 50, 25 and 12.5 μM, read-out: IC50 against RPE1. The source says:
Antiproliferative properties of the synthesized agents 8a–l were considered against RPE1 (human immortalized retinal pigment epithelial cell line) normal cell line utilizing the standard MTT (tetrazolium salt) technique.[37]
The synthesized agents 8a–l were screened against RPE1 (human immortalized retinal pigment epithelial cell line) normal cell line to investigate their cytotoxicity by the standard mitochondrial dependent reduction of yellow MTT [3-(4,5-dimethylthiazol-2-yl)-2,5-diphenyl-tetrazolium bromide] to purple formazan technique.[37] Cells were suspended in DMEM in addition to 1% antibiotic–antimycotic mixture (10 000 μg mL^−1 potassium penicillin, 10 000 μg mL^−1 streptomycin sulfate and 25 μg mL^−1 amphotericin B), 10% fetal bovine serum and 1% L-glutamine at 37 °C, under 5% CO2 and 95% humidity. Cells were seeded at concentration of 30 000 cells per well in fresh complete growth medium in 96-well tissue culture microtiter plates for 24 h. […] 0.5% DMSO was used as negative control. Triplicate wells were prepared for each individual dose. After 72 h of incubation, medium was aspirated, 40 μl MTT salt (2.5 mg mL^−1) were added to each well and incubated for further 4 h at 37 °C. To stop the reaction and dissolve the formed crystals, 150 μL of 10% sodium dodecyl sulfate (SDS) in deionized water were added to each well and incubated overnight at 37 °C.
Data were collected as mean values for experiments performed in triplicates for each individual dose which had been measured by MTT assay. […] The percentage of cell survival was calculated according to the following equation. [drawing 1]
Statistical calculations for determination of the mean and standard error values were determined by SPSS 16 software.

Series [2] addresses T1, AChE (Homo sapiens, UniProt P22303). In words: 2D-QSAR (BMLR, CODESSA-Pro) model, AChE inhibitors. The following applies: observed minus estimated IC50. The text has this: (§1) The cholinesterase properties observed were undertaken by CODESSA-Pro software accessible for optimizing 2D-QSAR models.[39–41] This is useful for well understanding the bio-observations and identifying the parameters necessary for bio-potency. Three descriptor QSAR models were developed due to the AChE and BChE inhibitory properties of the synthesized dispiro-compounds 8a–l (ESI Tables S4–S9, Fig. S40 and S41, details of the QSAR descriptors are also mentioned in the ESI). ^† […]
(§2) Goodness of the QSAR models was supported by the comparative values of the correlation coefficient (R^2) with their cross validation of leave one-out (R^2cvOO) and leave many-out (R^2cvMO) [R^2 = 0.923, 0.979; R^2cvOO = 0.882, 0.936; R^2cvMO = 0.904, 0.956, for AChE and BChE models, respectively]. Standard deviation (s^2) and Fisher criteria (F) values of the models also support their goodness (s^2 = 0.026, 0.005; […]. Additionally, the correlations of the observed and predicted values “specially the high potent synthesized compounds” add good support for the attained models. […]
(§3) Molecular modeling studies
(§4) The synthesized dispiro[indoline-3,2'-pyrrolidine-3',3''-pyrrolidines] 8a‒l […]
(§5) 2D-QSAR modeling by CODESSA-Pro (comprehensive descriptors for structural and statistical analysis) software. Geometry of the compounds was initially optimized by AM1 technique using hyperChem 8.0 then, uploaded to CODESSA-Pro for final geometrical structure optimization by MOPAC.10‒12 CODESSA-Pro calculated 656 molecular descriptors (constitutional, topological, geometrical, charge-related, semi-empirical, thermodynamical, molecular-type, atomic-type and bond-type descriptors) for […]
(§6) the exported bio-active agents. Mathematical transformation of the experimental values […]
(§7) QSAR model. The best multi-linear regression (BMLR) technique was utilized which is a stepwise search for the best n-parameter regression equations (where n stands for the number of descriptors used), based on the highest R2 (squared correlation coefficient), R2cvOO (squared cross-validation “leave one-out, LOO” coefficient), R2cvMO (squared cross-validation “leave many-out up to 20% of the training set, LMO” coefficient), F (Fisher statistical significance criteria) values, and s2 (standard deviation). The QSAR up to 3-descriptor model describing the biological activity of the bio-active agents were generated (obeying the thumb rule of 4:1 which is the ratio between the data points and the number of QSAR descriptor).
(§8) Minimum (>0.1) bond order for atom C is an atomic type descriptor with the […]
(§9) why the higher descriptor value, the lower AChE inhibitory efficacy of the tested agent as […]
(§10) 2/SQRT(TMSA) (MOPAC PC) is a charge related descriptor with relatively high […]
(§11) . Compounds with high descriptor value predicted low AChE
(§12) 0.11715). HDCA2 (area weighed surface charge of hydrogen bonding donor atoms) can be calculated by equ. (1). 13
(§13) HDCA2 = D … .DtotH‒donor (1)
(§14) Where, standsSD for the solvent accessible surface area of H-bonding donor H atoms (selected by threshold charge), is the partialqD charge on H-bonding donor H atoms (selected by threshold charge) and is the totalStot solvent accessible molecular surface […]
(§15) Square root of surface area for atom C is also a charge related descriptor with […]
(§16) . For this reason, the higher descriptor value of […]

Series [3] has as its target T1, AChE. In words: biochemical. The following applies: for SI(AChE/BChE): selectivity index = IC50 (AChE)/IC50 (BChE). The protocol: Butyrylthiocholine iodide and acetylthiocholine were utilized as substrates in BChE and AChE assays, respectively, where DTNB was served as indicator. All compounds were dissolved in MeOH. […] Blank assays were performed by replacing the enzyme (20 μL) with buffer and their absorbances were recorded for correction of the spontaneous lysis of the indicator or inherent color of the inhibitor.
Selectivity index (SI) for acetyl and butyryl cholinesterases was calculated as follow:SI(AChE/BChE) = IC50 (AChE)/IC50 (BChE)SI(BChE/AChE) = […]

Series [4] addresses T2, BChE (Homo sapiens, UniProt P06276). The experiment in a line: biochemical. Conditions: for SI(BChE/AChE): selectivity index BChE/AChE. The protocol: Butyrylthiocholine iodide and acetylthiocholine were utilized as substrates in BChE and AChE assays, respectively, where DTNB was served as indicator. All compounds were dissolved in MeOH. […] Blank assays were performed by replacing the enzyme (20 μL) with buffer and their absorbances were recorded for correction of the spontaneous lysis of the indicator or inherent color of the inhibitor. […]

The target in series [5] is T2, BChE. In words: 2D-QSAR (BMLR, CODESSA-Pro) model, BChE inhibitors. Conditions: observed minus estimated IC50.
Source text: as §1, §2, §3, §4, §5, §6, §7, §8, §9, §10, §11, §12, §13, §14, §15, §16
partial positively and negatively charged surface area can be calculated by equs. (2) and […]
PPSA3 = A … .. (2)A∈{δA>0}
PNSA3 = A … ..A∈{δA>0} (3)
Where, is the positively/negativelySA charged solvent accessible atomic surface area and qA is the atomic partial charge.
ZX Shadow/ZX rectangle is a geometrical descriptor with the highest coefficient […]
. The higher descriptor value of […]
compounds 8c and 8e, respectively). Relative shadow areas of a molecule can be determined by equ. (4). 13
Where, C is contour of the projection of the molecule on the plane defined by two principal axes of the molecule (k = XY, XZ or YZ plane), , , = X • ν –x or yρ –y or zS(k) […]
Maximum atomic state energy for atom O is an atomic type descriptor. […]

Another series deals with mice. In words: Acute toxicological bio-assay in mice. Conditions: intraperitoneal, 50, 100 and 250 mg kg−1, recorded 24 h post-administration. It is filed as in vivo. The procedure: Albino mice weighing 20–25 g were divided into 4 groups of 6 mice each. Administrations of the tested compounds dissolved in saline solution (0.9%) by the aid of few drops of Tween 80 were given intraperitoneally in 50, 100 and 250 mg kg^−1 (mice body weight). The control group was given a saline solution only with few drops of Tween 80. The toxic symptoms and mortality rates were recorded 24 h post-administration in each group.

The mark [6] stands for this setting: 10 min incubation at 25 °C, read at 405 nm, read-out: IC50 of AChE (μM) ± SD.
[7] abbreviates: log transformation of the observed IC50, read-out: Observed log(IC50, μM), AChE (converted).
The mark [8] stands for this setting: 10 min incubation at 25 °C, read at 405 nm, read-out: IC50 of BChE (μM) ± SD.
Setting [9] is: log transformation of the observed IC50, read-out: Observed log(IC50, μM), BChE (converted).

“And” between values parts separate entries of the source, which are not always exact repeats. Equal entries are not always repeated. Where two headings read alike, the source gives them in different places.

T1 sequence (P22303 32-614): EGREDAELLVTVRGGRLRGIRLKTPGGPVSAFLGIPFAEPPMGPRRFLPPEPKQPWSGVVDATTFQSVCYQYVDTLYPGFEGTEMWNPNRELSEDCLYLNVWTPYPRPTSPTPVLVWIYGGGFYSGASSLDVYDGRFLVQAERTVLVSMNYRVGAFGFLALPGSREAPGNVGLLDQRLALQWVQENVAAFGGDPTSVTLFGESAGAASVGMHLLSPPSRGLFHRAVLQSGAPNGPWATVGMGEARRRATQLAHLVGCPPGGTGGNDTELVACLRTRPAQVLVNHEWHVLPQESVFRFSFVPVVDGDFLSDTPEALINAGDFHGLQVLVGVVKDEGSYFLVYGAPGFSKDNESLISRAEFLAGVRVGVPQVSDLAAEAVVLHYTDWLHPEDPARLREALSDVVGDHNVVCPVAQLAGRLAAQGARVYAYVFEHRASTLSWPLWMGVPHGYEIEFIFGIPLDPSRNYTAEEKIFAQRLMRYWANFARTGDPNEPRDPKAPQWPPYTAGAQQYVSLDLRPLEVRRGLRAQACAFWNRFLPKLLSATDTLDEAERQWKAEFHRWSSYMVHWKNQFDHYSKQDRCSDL
T2 sequence (P06276 29-602): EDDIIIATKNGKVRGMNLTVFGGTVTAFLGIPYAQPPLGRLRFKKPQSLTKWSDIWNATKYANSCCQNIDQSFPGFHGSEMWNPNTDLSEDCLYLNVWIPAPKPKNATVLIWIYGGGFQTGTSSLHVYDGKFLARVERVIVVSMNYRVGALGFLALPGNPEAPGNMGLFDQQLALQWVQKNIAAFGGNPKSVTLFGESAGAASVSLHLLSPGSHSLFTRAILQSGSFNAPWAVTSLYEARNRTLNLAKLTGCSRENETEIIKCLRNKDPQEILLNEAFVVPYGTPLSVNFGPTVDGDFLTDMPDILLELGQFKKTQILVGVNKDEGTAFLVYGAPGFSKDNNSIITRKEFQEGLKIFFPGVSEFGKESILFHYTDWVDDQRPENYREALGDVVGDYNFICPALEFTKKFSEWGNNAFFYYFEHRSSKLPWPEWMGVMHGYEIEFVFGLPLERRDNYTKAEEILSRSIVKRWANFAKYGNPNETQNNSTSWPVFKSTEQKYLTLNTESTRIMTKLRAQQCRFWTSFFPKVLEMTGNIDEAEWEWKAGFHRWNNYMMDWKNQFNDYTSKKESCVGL

For the molecule `COc1ccc(C2CN(C)C3(C(=O)Nc4ccc(OC)cc43)C23CC(=O)N(c2ccccc2)C3=O)cc1` (stereo not drawn) [Compound 8g, 5-Methoxy-4′-(4-methoxyphenyl)-1′-methyl-1′′-phenyldispiro[indoline-3,2′-pyrrolidine-3′,3′′-pyrrolidine]-2,2′′,5′′-trione], the IC50 is greater than 100 µM in series [1]; 3.2 µM and 3.15 µM on AChE [3] (setting [6]); 3.15 µM on AChE [3] (setting [7]); 4.7 µM and 4.74 µM at BChE [4] (setting [8]); 4.74 µM on BChE [4] (setting [9]). On AChE [2], the “Error (difference between observed and estimated property values), AChE BMLR-QSAR model” value was -1.78 µM. The “SI(AChE/BChE)” value at AChE [3] was determined as 0.66. Besides, at BChE [4], the “SI(BChE/AChE)” value is given as 1.50. Moreover, the “Error (difference between observed and estimated property values), BChE BMLR-QSAR model” value at BChE [5] was -0.65 µM. Besides, in the series on mice, the “Mortality rates or toxicological symptoms” value is “None of the tested agents reveal any mortality rates or toxicological symptoms”.
For the molecule `CN1CC(c2ccccc2)C2(CC(=O)N(c3ccc(Cl)cc3)C2=O)C12C(=O)Nc1ccccc12` (stereo not drawn) [Compound 8h, 1′′-(4-Chlorophenyl)-1′-methyl-4′-phenyldispiro[indoline-3,2′-pyrrolidine-3′,3′′-pyrrolidine]-2,2′′,5′′-trione], the IC50 in series [1] is greater than 100 µM; on AChE [3] (setting [6]), 6.3 µM and 6.27 µM; at AChE [3] (setting [7]) it was 6.27 µM; at BChE [4] (setting [8]), 5.3 µM and 5.34 µM; on BChE [4] (setting [9]) it was 5.34 µM. Besides, on AChE [2], the “Error (difference between observed and estimated property values), AChE BMLR-QSAR model” value was -1.03 µM. Moreover, the “SI(AChE/BChE)” value at AChE [3] was 1.17. Further, the “SI(BChE/AChE)” value on BChE [4] is given as 0.85. Moreover, the “Error (difference between observed and estimated property values), BChE BMLR-QSAR model” value at BChE [5] was -0.81 µM. Moreover, the “Mortality rates or toxicological symptoms” value in the series on mice is “None of the tested agents reveal any mortality rates or toxicological symptoms”.
In the case of `CN1CC(c2ccc(Cl)cc2)C2(CC(=O)N(c3ccc(Cl)cc3)C2=O)C12C(=O)Nc1ccccc12` (stereo not drawn) [Compound 8j, 1′′,4′-Bis(4-chlorophenyl)-1′-methyldispiro[indoline-3,2′-pyrrolidine-3′,3′′-pyrrolidine]-2,2′′,5′′-trione], the IC50 in series [1] was greater than 100 µM; on AChE [3] (setting [6]), 21 µM; on AChE [3] (setting [7]) it was 21 µM; at BChE [4] (setting [8]), 13.6 µM; at BChE [4] (setting [9]), 13.6 µM. Also, the “Error (difference between observed and estimated property values), AChE BMLR-QSAR model” value on AChE [2] is -0.80 µM. Also, on AChE [3], the “SI(AChE/BChE)” value is listed as 1.54. In addition, on BChE [4], the “SI(BChE/AChE)” value came to 0.65. Besides, the “Error (difference between observed and estimated property values), BChE BMLR-QSAR model” value at BChE [5] was 1.51 µM.
On to `CN1CC(c2ccccc2)C2(CC(=O)N(c3ccccc3)C2=O)C12C(=O)Nc1ccccc12` (stereo not drawn) [Compound 8a, 1′-Methyl-1′′,4′-diphenyldispiro[indoline-3,2′-pyrrolidine-3′,3′′-pyrrolidine]-2,2′′,5′′-trione], for which the IC50 in series [1] was greater than 100 µM; on AChE [3] (setting [6]), 117 µM; on AChE [3] (setting [7]) it was 117 µM; on BChE [4] (setting [8]), 81.8 µM; at BChE [4] (setting [9]), 81.8 µM. The “Error (difference between observed and estimated property values), AChE BMLR-QSAR model” value at AChE [2] is -13.41 µM. Besides, the “SI(AChE/BChE)” value on AChE [3] turned out to be 1.43. Besides, the “SI(BChE/AChE)” value on BChE [4] was 0.70. For the same molecule, the “Error (difference between observed and estimated property values), BChE BMLR-QSAR model” value on BChE [5] is 12.80 µM.
Take `COc1ccc2c(c1)C1(C(=O)N2)N(C)CC(c2ccc(Cl)cc2)C12CC(=O)N(c1ccccc1)C2=O` (stereo not drawn) [Compound 8e, 4′-(4-Chlorophenyl)-5-methoxy-1′-methyl-1′′-phenyldispiro[indoline-3,2′-pyrrolidine-3′,3′′-pyrrolidine]-2,2′′,5′′-trione]: the IC50 is greater than 100 µM in series [1]; 3.4 µM and 3.35 µM at AChE [3] (setting [6]); 3.35 µM at AChE [3] (setting [7]); 5.6 µM and 5.63 µM at BChE [4] (setting [8]); 5.63 µM on BChE [4] (setting [9]). Moreover, the “Error (difference between observed and estimated property values), AChE BMLR-QSAR model” value on AChE [2] was 0.10 µM. The “SI(AChE/BChE)” value at AChE [3] worked out at 0.60. For the same molecule, at BChE [4], the “SI(BChE/AChE)” value is on record as 1.68. Moreover, the “Error (difference between observed and estimated property values), BChE BMLR-QSAR model” value on BChE [5] was 0.86 µM. For the same molecule, the “Mortality rates or toxicological symptoms” value with mice was “None of the tested agents reveal any mortality rates or toxicological symptoms”.

(Values after paper PMC9054546, “Synthesis and molecular modeling studies of cholinesterase inhibitor dispiro[indoline-3,2′-pyrrolidine-3′,3′′-pyrrolidines]” (RSC Advances, 2020).)
